Test: xn = mol fraction of the nth substance listed
Conditions: 101 kPa, x1 = 0.5

O=C1CCCCCN1 + CCCC[N+](CCCC)(CCCC)CCCC.[Cl-]
Conditions	electrical conductivity [S/m]
293.15 K	0.0409
295.65 K	0.0459
298.15 K	0.0554
300.65 K	0.0726
303.15 K	0.0934
305.65 K	0.116
308.15 K	0.142
310.65 K	0.172
318.15 K	0.31
320.65 K	0.368
323.15 K	0.431
325.65 K	0.49
330.65 K	0.61
333.15 K	0.707

From a compilation of properties of binary mixtures (doi:10.1016/j.molliq.2012.10.026)
